Experiment: Human HepG2 cell viability assay in 384 well format
Format: toxicity, cell-based
Parameters: dose 125 nL, time 70.5 hour; concentration not given beside the values
Settings: HepG2 cells, read-out: Inhibition

Structure (SMILES) | cytotoxicity at 70.5 h
CNC(=O)c1cc2c(nc1NC(C)C)CCNCC2 | 6.54%
CCOCc1ncn2c1CN(S(=O)(=O)c1ccc(F)cc1)CC2 | 9.27%
COCc1ncn2c1CN(S(=O)(=O)c1cccc(OC)c1)CC2 | 8.77%
c1ccc(-c2ncc3c(n2)C2(CCN(c4ncccn4)C2)COC3)cc1 (stereo not drawn) | -2.35%
O=C(Nc1ccccc1)C1CN(Cc2nccs2)CC12CCOCC2 (stereo not drawn) | 10%
O=C(c1ncccn1)N1C[C@@H]2COC[C@]2(c2nnc(C3CC3)o2)C1 | 9.47%
COCc1ncn2c1CN(S(=O)(=O)c1cccc(F)c1)CC2 | -8.14%
COCCO[C@@H]1C[C@H]2CN(C(=O)c3cccnc3)CCN2C1 | -6.81%
CS(=O)(=O)N1CCC2(COCc3cnc(-c4ccccc4)nc32)C1 (stereo not drawn) | -10.2%
Cc1noc(C)c1CN1CC2(CCN(C(=O)c3cccn3C)C2)CC1=O (stereo not drawn) | -8.3%
Cc1ncnc2c1CCN(C(=O)c1cccnc1)CC2 | -6.81%
Cc1ccc(CN2CCC3(CC(C(=O)NCC4CC4)=NO3)C2)s1 (stereo not drawn) | -8.89%
CCN(CC)CC1CN(Cc2c(C)noc2C)Cc2nccn2C1 (stereo not drawn) | -4.28%
Cc1noc(C)c1CN1CC2(CCN(C(=O)c3ccc[nH]3)C2)CC1=O (stereo not drawn) | -6.16%
O=C(NCC1CC1)C1=NOC2(CCN(Cc3ccsc3)C2)C1 (stereo not drawn) | -7.31%
O=C(CC1CC1)N1CCC2(CC1)CC(Oc1ccccc1)CO2 (stereo not drawn) | -4.92%
N#Cc1cccc(CN2CCC3(CC(C(=O)NCC4CC4)=NO3)C2)c1 (stereo not drawn) | -4.48%
Cc1noc(C)c1C(=O)N1CCC2(CC1)CC(Oc1ccccc1)CO2 (stereo not drawn) | -3.84%
Cc1ccc(C(=O)N2CCc3ncnc(C)c3CC2)cn1 | -4.87%
CS(=O)(=O)Nc1nn(Cc2ccc(F)cc2)cc1Br | -3.65%
CCOc1cccc(C(=O)Nc2ccn(CC)n2)c1 | -19.9%
O=C(CCn1cc(Cl)cn1)Nc1ncccn1 | -4.36%
CCCN1CCN(C(=O)c2ccn(COc3ccc(F)cc3)n2)CC1 | -3.36%

Structure (SMILES) | cytotoxicity at 70.5 h
O=C(c1ccn(COc2ccc(F)cc2)n1)N1CCCCCC1 | -3.63%
Cc1cc(NC(=O)C(C)Oc2ccc3c(c2)OCO3)no1 (stereo not drawn) | -6.37%
Cc1nn(CC(=O)Nc2ccon2)c(C)c1Br | -11.8%
CCC/N=c1/c(NC(=O)NCCCOC)c(O)oc2ccccc12 | 29.3%
CCn1nccc1CNC(=O)CCC1CCCC1 | 18.7%
CCCn1nccc1C(=O)Nc1ncc(C)s1 | -11.3%
CCN(CC)CCCNC(=O)c1nn(CC)cc1Cl | 2.52%
CCN(CC)CCCNC(=O)C(C)n1cc(Br)cn1 (stereo not drawn) | -1.37%
NC(=O)C1CCN(C(=O)c2ccc(Cn3cc(Br)cn3)cc2)CC1 | 16%
O=C(Nc1cnn(Cc2ccc(F)cc2Cl)c1)C1CC1 | -3.99%
CSc1[nH]nc(NC(=O)c2ccncc2)c1C#N | -1.59%
CCN(Cc1nonc1C)C(=O)Cn1nc(C(F)(F)F)cc1C1CC1 | -5.16%
CCN(Cc1nonc1C)C(=O)Cn1nc(C(F)(F)F)cc1C | -9.27%
CC(=O)c1ccc(NC(=O)C(C)Cn2cc(Br)cn2)cc1 (stereo not drawn) | -5.47%
CC(C)(C)NC(=O)c1ccn(COc2ccccc2Cl)n1 | -5.39%
Cc1nnsc1C(=O)N1CCC(c2nc3ccccc3[nH]2)CC1 | 24%
CCCN(C(=O)COCC)c1cccc(C)c1 | -4.58%
COCCNCc1ccc(OCC(=O)NC(C)(C)C)cc1 | 19.6%
CC(C(=O)N1CCN(c2ccc(F)cc2)CC1)n1cc(Br)cn1 (stereo not drawn) | -8.98%
COCC(=O)Nc1cnn(COc2ccc(F)cc2Cl)c1 | 2.16%
CC(NC(=O)c1ccc(Cl)cc1)c1nnc(SCC(N)=O)n1C (stereo not drawn) | -8%
Cn1cc(I)c(C(=O)NCCCn2cc(Br)cn2)n1 | 0.223%
Cn1cc(Br)c(C(=O)NCCCn2cc(Br)cn2)n1 | 6.5%

Structure (SMILES) | cytotoxicity at 70.5 h
CCn1ncc(CN2CCN(C(=O)Cn3cc(Br)c(C)n3)CC2)c1C | -9.19%
Cc1nn(Cc2ccc(C(=O)NCCCN3CCCC3=O)o2)c(C)c1Cl | -10.6%
Cc1cc(NC(=O)C(C)Cn2cc(Br)cn2)no1 (stereo not drawn) | 1.29%
CC(C)(C)NC(=O)c1ccn(COc2c(Cl)cccc2Cl)n1 | -0.674%
O=C(c1ccnn1COc1ccc(Cl)cc1)N1CCSCC1 | -11%
CS(=O)(=O)Nc1cnn(Cc2cccc(Cl)c2)c1 | -7.33%
COc1ccc(OC)c(C(C)NS(=O)(=O)c2cn(C)nc2C)c1 (stereo not drawn) | -3.29%
CCn1cc(NS(=O)(=O)c2ccc(Br)s2)c(C(=O)NCC(C)C)n1 | -0.598%
Cc1nn(C)cc1-c1cc(C(F)F)nc2sc(C(N)=O)c(N)c12 | 7.12%
Cc1c(Br)c(C(F)F)nn1C(C)C(=O)O (stereo not drawn) | -10.2%
COC(=O)c1ccn(COc2ccccc2Cl)n1 | -9.21%
Cc1c(-c2cc(C(F)F)nc3sc(C(N)=O)c(N)c23)cnn1C | -1.99%
Cc1c(-c2cc(-c3cnn(C)c3C)n(CC(=O)NC3CC3)n2)cnn1C | 19.6%
COc1cc(NC(=O)NCC2CCCO2)cc(OC)c1 (stereo not drawn) | 16.9%
Cn1c(=O)n(C)c2nc(Br)c(CC(=O)c3ccccc3)n2c1=O | -4.55%
Fc1ccccc1NCc1nc2n(n1)CCCCC2 | -19.3%
Cc1ccc(C)c(NCc2nc3n(n2)CCCCC3)c1 | -15.6%
CCOc1ccc(N2CCCN=C2NC(=O)c2ccc(Cl)cc2)cc1 | -1.22%
CN1CC(Oc2ccccc2)=NC(SCC(=O)Nc2ccccc2Cl)=N1 | 5.43%
OC1=C2C(=Nc3n[nH]c(O)c3C2c2ccccc2Cl)CCC1 (stereo not drawn) | 9.03%
CSc1nc(N)c2c(n1)N=C1COC(O)=C1C2c1cccc(O)c1 (stereo not drawn) | 0.964%
Cc1cccc(NC(C)C(=O)Nc2nccs2)c1 (stereo not drawn) | -14.6%
CC(=O)N1CCN(c2ncnc3cc4c(cc23)OCCO4)CC1 | -6.91%

Structure (SMILES) | cytotoxicity at 70.5 h
CC(C)C(=O)N1CCN(c2ncnc3cc4c(cc23)OCCO4)CC1 | -1.97%
Cc1nn(C)c2c(N3CCN(C(=O)C(C)C)CC3)ncnc12 | -5.46%
Cc1ccccc1C(=O)NC(C)c1cnn(C)c1 (stereo not drawn) | 27.8%
CCn1cc(C(=O)N2CCOCC2)cn1 | -3.04%
CC(C)N1CCC(c2nccnc2Nc2cnccn2)CC1 | 17.9%
Cc1cncnc1C1CCN(CC(N)=O)CC1 | -4.96%
O=C(c1n[nH]c(=O)c2ccccc12)N1CCC(O)(CN2CCOCC2)C1 (stereo not drawn) | 14.5%
Nc1cccc(C2CN(C(=O)CN3CCOCC3)CCO2)n1 (stereo not drawn) | -4.5%
CO[C@H]1CN(S(=O)(=O)c2ccc(F)cc2)C[C@@]12CCCO2 | 36.6%
CCc1nnc(Nc2cc(C)nc(C3CCN(c4ccncn4)C3)n2)s1 (stereo not drawn) | 12.4%
O=C(NCCc1ccc(F)cc1)C1CN(C(=O)Cn2cncn2)C1 | -13.2%
CC(=O)N1CCOC(c2c(C(=O)NC(C)(C)C)sc3ccccc23)C1 (stereo not drawn) | -13.1%
Cc1nn(C)cc1NC(=O)CC1CCN(C(=O)Cc2ccccc2)CC1 | -4.98%
Cc1c[nH]nc1C1CCN(C(=O)C2CCC2)CC1 | -8.63%
CC(C)S(=O)(=O)N1C[C@@H](c2ccccc2)[C@H]2[C@H]1CCCCCN2C | -5.45%
COc1ccc(-c2cc(C(=O)NCCn3ccnc3)n(C)n2)cc1 | 19.2%
Cc1cc(C2CCNCC2)nc(-c2ccsc2)n1 | -8.24%
CC(C)(C)C(=O)N1C[C@H](c2ccsc2)[C@H]2CN(C3CCCCC3)CC[C@H]21 | -3.27%
O=C(NCc1cncc2c1CCN(Cc1ccc(F)cc1)C2)C1CC1 | -8.1%
O=C(NCc1cncc2c1CCN(Cc1ccoc1)C2)C1CC1 | -0.887%
O=C(NCc1cncc2c1CCN(CC1CCOC1)C2)c1ccno1 (stereo not drawn) | -6.93%
O=C([C@H]1CC[C@@H]2[C@@H](CCN2Cc2ccc(F)cc2)O1)N1CCCO1 | -9.2%
Cn1cccc1C(=O)N1CCO[C@H]2[C@H](OCc3cccnc3)CC[C@@H]21 | -7.88%

Structure (SMILES) | cytotoxicity at 70.5 h
O=C(NCc1cccs1)c1nc2c(o1)CN(C(=O)c1cccnc1)C2 | 7.5%
CCN(C)c1ncnc2c1CCN(C(=O)c1ccoc1C)CC2 | -10.9%
CCN(C)c1ncnc2c1CCN(C(=O)c1ccsc1)CC2 | -0.977%
CC(C)Nc1nc2c(cc1C(=O)NCC1CC1)CCN(S(C)(=O)=O)CC2 | -6.91%
O=C(NCc1ccco1)[C@H]1CC[C@@H]2[C@@H](CCN2Cc2nccs2)O1 | -4.65%
O=C(c1cnccn1)N1CCN2C[C@H](OCc3ccccc3F)C[C@H]2C1 | -6.71%
O=C(NCc1ccco1)[C@@H]1CC[C@@H]2[C@@H](CCN2Cc2ccc(F)cc2)O1 | -5.82%
O=C(Nc1ccccc1)C1CN(Cc2ccco2)CC12CCOCC2 (stereo not drawn) | -10.6%
O=C(Nc1ccccc1)C1CN(Cc2ccsc2)CC12CCOCC2 (stereo not drawn) | -18.9%
COCc1ncn2c1CN(S(=O)(=O)Cc1ccc(C)cc1)CC2 | -10.2%
COCC1CN(Cc2csc(C)n2)Cc2nccn2C1 (stereo not drawn) | 2.98%
CS(=O)(=O)N1CCOCC2(CN(Cc3ccc(F)cc3)CCO2)C1 (stereo not drawn) | -3.17%
CN(C)c1ncc2c(n1)C1(CCN(Cc3ccccc3F)C1)COC2 (stereo not drawn) | -7.03%
CCn1ncc2c1C(COC)CN(S(=O)(=O)N(C)C)C2 (stereo not drawn) | -10.2%
COc1ccc(CC(=O)N2Cc3nccn3CC(CN(C)C)C2)cc1 (stereo not drawn) | 20.5%
Cc1ccc(CN2CCC3(CC2)CN(c2ccccc2)C(=O)CO3)o1 | 23.7%
CC(C)Nc1nc2c(cc1C(=O)NCC1CC1)CCN(CC1CC1)CC2 | 25.7%
CN(Cc1ccco1)C[C@@H]1OC[C@H]2CN(Cc3nccs3)CC[C@H]21 | 4.46%
CN(C)CC(=O)N1Cc2nnn(C)c2C(COCc2ccccn2)C1 (stereo not drawn) | 9.45%
Cc1ncccc1NC(=O)[C@@H]1CC[C@@H]2[C@@H](CCN2Cc2cnn(C)c2)O1 | 13.5%
CN(Cc1ccco1)C[C@H]1OC[C@@H]2CCN(Cc3ccccn3)C[C@@H]21 | -8.48%
